Patent publication US20200338084A1, “INHIBITORS OF LOW MOLECULAR WEIGHT PROTEIN TYROSINE PHOSPHATASE (LMPTP) AND USES THEREOF” (Sanford Burnham Prebys Medical Discovery Institute, priority 2018, published 2020)

Target: T1, human LMPTP-A (Homo sapiens, UniProt P24666)
T1 sequence (P24666 1-158): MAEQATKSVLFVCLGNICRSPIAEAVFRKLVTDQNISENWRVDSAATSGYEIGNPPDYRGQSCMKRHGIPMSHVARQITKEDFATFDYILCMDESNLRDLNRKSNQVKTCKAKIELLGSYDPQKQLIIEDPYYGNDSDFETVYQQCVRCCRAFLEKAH
Assay: Enzyme Assay of Inhibition of LMPTP-A
Type: biochemical
Conditions: phosphatase assay, OMFP or pNPP substrate, 50 mM Bis-Tris pH 6.0, 37° C.
How it was run: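 Recombinant human LMPTP-A in 50 mM Bis-Tris pH 6.0, 1 mM DTT, 0.01% Triton X-100 at 37° C. Substrate OMFP read continuously by fluorescence (485/525 nm), or pNPP stopped with NaOH and read at 405 nm. IC50 taken from inhibitor concentration versus % activity plots.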

Compound	IC50
NCCNc1ncn(Cc2c(Cl)cccc2Cl)c2ncnc1-2 [(2-Aminoethyl){3-[(2,6-dichlorophenyl)methyl](3-hydropurin-6-yl)}amine]	≥ 20 µM
c1ccc(-n2cnc(NCc3ccco3)c3ncnc2-3)cc1 [(2-Furylmethyl)(3-phenyl(3-hydropurin-6-yl))amine]	≥ 20 µM
Fc1ccc(F)c(Cn2cnc(NCc3ccco3)c3ncnc2-3)c1F [Furan-2-ylmethyl-[3-(2,3,6-trifluoro-benzyl)-3H-purin-6-yl]-amine]	≥ 20 µM
COc1ccccc1Cn1cnc(NCc2ccco2)c2ncnc1-2 [Furan-2-ylmethyl-[3-(2-methoxy-benzyl)-3H-purin-6-yl]-amine]	≥ 20 µM
Cc1ccccc1Cn1cnc(NCc2ccco2)c2ncnc1-2 [Furan-2-ylmethyl-[3-(2-methyl-benzyl)-3H-purin-6-yl]-amine]	≥ 20 µM
COc1ccc(Cn2cnc(NCc3ccco3)c3ncnc2-3)cc1 [Furan-2-ylmethyl-[3-(4-methoxy-benzyl)-3H-purin-6-yl]-amine]	≥ 20 µM
CS(=O)(=O)Nc1ncn(Cc2c(Cl)cccc2Cl)c2ncnc1-2 [N-(3-(2,6-dichlorobenzyl)-3h-purin-6-yl)methanesulfonamide]	≥ 20 µM
CCC(=O)Nc1ncn(Cc2c(Cl)cccc2Cl)c2ncnc1-2 [N-[3-(2,6-Dichloro-benzyl)-3 H-purin-6-yl]-propionamide]	1 to 20 µM
O=C(Nc1ncn(Cc2c(Cl)cccc2Cl)c2ncnc1-2)c1ccccc1 [N-[3-(2,6-Dichloro-benzyl)-3H-purin-6-yl]-benzamide]	≥ 20 µM
O=C(Nc1ncn(Cc2c(Cl)cccc2Cl)c2ncnc1-2)c1ccccn1 [Pyridine-2-carboxylic acid [3-(2,6-dichloro-benzyl)-3H-purin-6-yl]-amide]	1 to 20 µM
Clc1ccc(Cn2cnc(NCc3ccco3)c3ncnc2-3)c(Cl)c1 [[3-(2,4-Dichloro-benzyl)-3H-purin-6-yl]-furan-2-ylmethyl-amine]	≥ 20 µM
Clc1ccc(Cl)c(Cn2cnc(NCc3ccco3)c3ncnc2-3)c1 [[3-(2,5-Dichloro-benzyl)-3H-purin-6-yl]-furan-2-ylmethyl-amine]	1 to 20 µM
Fc1ccccc1CNc1ncn(Cc2c(Cl)cccc2Cl)c2ncnc1-2 [[3-(2,6-Dichloro-benzyl)-3H-purin-6-yl]-(2-fluoro-benzyl)-amine]	1 to 20 µM
COCCNc1ncn(Cc2c(Cl)cccc2Cl)c2ncnc1-2 [[3-(2,6-Dichloro-benzyl)-3H-purin-6-yl]-(2-methoxy-ethyl)-amine]	1 to 20 µM
Fc1cccc(CNc2ncn(Cc3c(Cl)cccc3Cl)c3ncnc2-3)c1 [[3-(2,6-Dichloro-benzyl)-3H-purin-6-yl]-(3-fluoro-benzyl)-amine]	1 to 20 µM
COCCCNc1ncn(Cc2c(Cl)cccc2Cl)c2ncnc1-2 [[3-(2,6-Dichloro-benzyl)-3H-purin-6-yl]-(3-methoxy-propyl)-amine]	1 to 20 µM
Fc1ccc(CNc2ncn(Cc3c(Cl)cccc3Cl)c3ncnc2-3)cc1 [[3-(2,6-Dichloro-benzyl)-3H-purin-6-yl]-(4-fluoro-benzyl)-amine]	1 to 20 µM
Cc1ccc(CNc2ncn(Cc3c(Cl)cccc3Cl)c3ncnc2-3)cc1 [[3-(2,6-Dichloro-benzyl)-3H-purin-6-yl]-(4-methyl-benzyl)-amine]	1 to 20 µM

Compound	IC50
CN(C)c1ncn(Cc2c(Cl)cccc2Cl)c2ncnc1-2 [[3-(2,6-Dichloro-benzyl)-3H-purin-6-yl]-dimethyl-amine]	≥ 20 µM
CCNc1ncn(Cc2c(Cl)cccc2Cl)c2ncnc1-2 [[3-(2,6-Dichloro-benzyl)-3H-purin-6-yl]-ethyl-amine]	1 to 20 µM
Clc1cccc(Cl)c1Cn1cnc(NCc2ccco2)c2ncnc1-2 [[3-(2,6-Dichloro-benzyl)-3H-purin-6-yl]-furan-2-ylmethyl-amine]	1 to 20 µM
CNc1ncn(Cc2c(Cl)cccc2Cl)c2ncnc1-2 [[3-(2,6-Dichloro-benzyl)-3H-purin-6-yl]-methyl-amine]	1 to 20 µM
Clc1cccc(Cl)c1Cn1cnc(NCc2cnco2)c2ncnc1-2 [[3-(2,6-Dichloro-benzyl)-3H-purin-6-yl]-oxazol-5-ylmethyl-amine]	1 to 20 µM
CCCCCNc1ncn(Cc2c(Cl)cccc2Cl)c2ncnc1-2 [[3-(2,6-Dichloro-benzyl)-3H-purin-6-yl]-pentyl-amine]	1 to 20 µM
CCCNc1ncn(Cc2c(Cl)cccc2Cl)c2ncnc1-2 [[3-(2,6-Dichloro-benzyl)-3H-purin-6-yl]-propyl-amine]	1 to 20 µM
Clc1cccc(Cl)c1Cn1cnc(NCc2ccccn2)c2ncnc1-2 [[3-(2,6-Dichloro-benzyl)-3H-purin-6-yl]-pyridin-2-ylmethyl-amine]	1 to 20 µM
Clc1cccc(Cl)c1Cn1cnc(NCc2cccnc2)c2ncnc1-2 [[3-(2,6-Dichloro-benzyl)-3H-purin-6-yl]-pyridin-3-ylmethyl-amine]	1 to 20 µM
Clc1cccc(Cl)c1Cn1cnc(NCc2ccncc2)c2ncnc1-2 [[3-(2,6-Dichloro-benzyl)-3H-purin-6-yl]-pyridin-4-ylmethyl-amine]	1 to 20 µM
Clc1cccc(Cl)c1Cn1cnc(NCc2cccs2)c2ncnc1-2 [[3-(2,6-Dichloro-benzyl)-3H-purin-6-yl]-thiophen-2-ylmethyl-amine]	1 to 20 µM
Fc1cccc(F)c1Cn1cnc(NCc2ccco2)c2ncnc1-2 [[3-(2,6-Difluoro-benzyl)-3H-purin-6-yl]-furan-2-ylmethyl-amine]	1 to 20 µM
Brc1ccccc1Cn1cnc(NCc2ccco2)c2ncnc1-2 [[3-(2-Bromo-benzyl)-3H-purin-6-yl]-furan-2-ylmethyl-amine]	1 to 20 µM
Fc1cccc(Cl)c1Cn1cnc(NCc2ccco2)c2ncnc1-2 [[3-(2-Chloro-6-fluoro-benzyl)-3H-purin-6-yl]-furan-2-ylmethyl-amine]	1 to 20 µM
Clc1ccccc1Cn1cnc(NCc2ccco2)c2ncnc1-2 [[3-(2-Chloro-benzyl)-3H-purin-6-yl]-furan-2-ylmethyl-amine]	≥ 20 µM
Fc1ccccc1Cn1cnc(NCc2ccco2)c2ncnc1-2 [[3-(2-Fluoro-benzyl)-3H-purin-6-yl]-furan-2-ylmethyl-amine]	≥ 20 µM
Clc1cccc(Cn2cnc(NCc3ccco3)c3ncnc2-3)c1 [[3-(3-Chloro-benzyl)-3H-purin-6-yl]-furan-2-ylmethyl-amine]	≥ 20 µM

Further lines, results first:

IC50	Compound
≤ 1 µM	Nc1ncn(Cc2c(Cl)cccc2Cl)c2nc(/C=C/c3ccccc3)nc1-2 [8-((1E)-2-Phenylvinyl)-3-[(2,6-dichlorophenyl)methyl]-3-hydropurine-6-ylamine]
≤ 1 µM	Nc1ncn(Cc2c(Cl)cccc2Cl)c2nc(C3C4CC5CC(C4)CC3C5)nc1-2 (centres unmarked) [8-Adamantan-2-yl-3-[(2,6-dichlorophenyl)methyl]-3-hydropurine-6-ylamine]
≤ 1 µM	Nc1ncn(Cc2c(Cl)cccc2Cl)c2nc(-c3ccc4scnc4c3)nc1-2 [8-Benzothiazol-5-yl-3-[(2,6-dichlorophenyl)methyl]-3-hydropurine-6-ylamine]
≤ 1 µM	Nc1ncn(Cc2c(Cl)cccc2Cl)c2nc(-c3ccc4ocnc4c3)nc1-2 [8-Benzoxazol-5-yl-3-[(2,6-dichlorophenyl)methyl]-3-hydropurine-6-ylamine]
1 to 20 µM	Clc1cccc(Nc2ncn(Cc3c(Cl)cccc3Cl)c3ncnc2-3)c1Cl [(2,3-Dichlorophenyl){3-[(2,6-dichlorophenyl)methyl](3-hydropurin-6-yl)}amine]
1 to 20 µM	NCCCCNc1ncn(Cc2c(Cl)cccc2Cl)c2ncnc1-2 [(4-Aminobutyl){3-[(2,6-dichlorophenyl)methyl](3-hydropurin-6-yl)}amine]
1 to 20 µM	Clc1cccc(Cl)c1Cn1cnc(NCc2ccccc2)c2ncnc1-2 [Benzyl-[3-(2,6-dichloro-benzyl)-3H-purin-6-yl]-amine]
1 to 20 µM	CCCCNc1ncn(Cc2c(Cl)cccc2Cl)c2ncnc1-2 [Butyl-[3-(2,6-dichloro-benzyl)-3H-purin-6-yl]-amine]
1 to 20 µM	Clc1cccc(Cl)c1Cn1cnc(NC2CC2)c2ncnc1-2 [Cyclopropyl-[3-(2,6-dichloro-benzyl)-3H-purin-6-yl]-amine]
1 to 20 µM	O=C(Nc1ncn(Cc2c(Cl)cccc2Cl)c2ncnc1-2)c1ccco1 [Furan-2-carboxylicacid [3-(2,6-dichloro-benzyl)-3H-purin-6-yl]-amide]
1 to 20 µM	COC(=O)c1cccc(Nc2ncn(Cc3c(Cl)cccc3Cl)c3ncnc2-3)c1 [Methyl 3-({3-[(2,6-dichlorophenyl)methyl]-3-hydropurin-6-yl}amino)benzoate]
1 to 20 µM	COC(=O)c1ccc(Nc2ncn(Cc3c(Cl)cccc3Cl)c3ncnc2-3)cc1 [Methyl 4-({3-[(2,6-dichlorophenyl)methyl]-3-hydropurin-6-yl}amino)benzoate]
1 to 20 µM	CN(C)c1ccc(Nc2ncn(Cc3c(Cl)cccc3Cl)c3ncnc2-3)cc1 [N1-(3-(2,6-dichlorobenzyl)-3H-purin-6-yl)-N4,N4-dimethylbenzene-1,4-diamine]
1 to 20 µM	Clc1cccc(Cl)c1Cn1cnc(Nc2cccc(OCc3ccccc3)c2)c2ncnc1-2 [N-(3-(benzyloxy)phenyl)-3-(2,6-dichlorobenzyl)-3H-purin-6-amine]
1 to 20 µM	Cc1c(Cl)cccc1Nc1ncn(Cc2c(Cl)cccc2Cl)c2ncnc1-2 [N-(3-Chloro-2-methylphenyl)-3-(2,6-dichlorobenzyl)-3H-purin-6-amine]
1 to 20 µM	Clc1ccc(CNc2ncn(Cc3c(Cl)cccc3Cl)c3ncnc2-3)cc1 [N-(4-chlorobenzyl)-3-(2,6-dichlorobenzyl)-3h-purin-6-amine]
1 to 20 µM	CC(=O)Nc1ncn(Cc2c(Cl)cccc2Cl)c2ncnc1-2 [N-[3-(2,6-Dichloro-benzyl)-3 H-purin-6-yl]-acetamide]
≤ 1 µM	O=C(Nc1ncn(Cc2c(Cl)cccc2Cl)c2ncnc1-2)c1ccncc1 [N-[3-(2,6-Dichloro-benzyl)-3H-purin-6-yl]-isonicotinamide]
